Experimental data reported in PMC4269550, “Lead Optimization of a Pyrazole Sulfonamide Series of Trypanosoma bruceiN-Myristoyltransferase Inhibitors: Identification and Evaluation of CNS Penetrant Compounds as Potential Treatments for Stage 2 Human African Trypanosomiasis” (Journal of Medicinal Chemistry, 2014).
Where two headings read alike, the source gives them in different places.

Key:
[1] = in vitro; type: cell-based, human; conditions: human
[2] = Intrinsic clearance (Cli), mouse liver microsomes; type: in vitro ADME; conditions: for Cli (mouse): mouse liver microsomes; for Cli: mouse microsomes
[3] = test system: MRC5, human lung fibroblast cells; assay: in vitro; type: cell-based
[4] = test system: T. b. brucei, BSF427, VSG118; assay: Cell viability assay, trypanosome; type: cell-based

Structure (SMILES): Cc1nn(C)c(C)c1NS(=O)(=O)c1c(Cl)cc(Br)cc1Cl [compound 7, 4-bromo-2,6-dichloro-N-(1,3,5-trimethyl-1H-pyrazol-4-yl)-benzenesulfonamide]
- EC50 at 69 h [1]: > 50 µM
- Cli (mouse) [2]: 14 mL min^–1 g^–1

Structure (SMILES): Cc1nn(C)c(C)c1NS(=O)(=O)c1c(Cl)cc(C#CCN2CCN(C)CC2)cc1Cl [compound 13]
- EC50 at 69 h ([1]; MRC-5 EC50): > 50 µM

Structure (SMILES): Cc1nn(C)c(C)c1NS(=O)(=O)c1c(Cl)cc(CCCN2CCN(C)CC2)cc1Cl [compound 14]
- Cli (mouse) [2]: 1.7 mL min^–1 g^–1
- Cli [2]: 1.7 mL/min/g

Structure (SMILES): Cc1nn(C)c(C)c1NS(=O)(=O)c1ccc(CCCN2CCN(C)CC2)cc1 [compound 15]
- EC50 at 69 h ([1]; MRC-5 EC50): > 50 µM

Structure (SMILES): Cc1nn(C)c(C)c1NS(=O)(=O)c1c(Cl)cc(CCCC2CCN(C)CC2)cc1Cl [compound 16]
- Cli (mouse) [2]: 4.3 mL min^–1 g^–1
- Cli [2]: 4.3 mL/min/g

Structure (SMILES): Cc1nn(C)c(C)c1NS(=O)(=O)c1ccc(CCCC2CCNCC2)cc1 [compound 19]
- EC50 at 69 h ([1]; MRC-5 EC50): > 50 µM

Structure (SMILES): Cc1nn(C)c(C)c1N(C)[S+](=O)([O-])c1c(Cl)cc(-c2ccnc(N3CCNCC3)c2)cc1Cl [compound 29]
- Cli (mouse) [2]: 17 mL min^–1 g^–1

Structure (SMILES): Cc1nn(C)c(C)c1N(C)[S+](=O)([O-])c1ccc(-c2ccnc(N3CCNCC3)c2)cc1 [compound 30]
- Cli (mouse) [2]: 1.3 mL min^–1 g^–1

Structure (SMILES): Cc1nn(C)c(C)c1NS(=O)(=O)c1ccc(-c2cccc(CN3CCN(C)CC3)c2)cc1 [compound 31]
- Cli (mouse) [2]: 1.2 mL min^–1 g^–1

Structure (SMILES): Cc1nn(C)c(C)c1N(C)S(=O)(=O)c1ccc(-c2cccc(CN3CCN(C)CC3)c2)cc1 [compound 32]
- Cli (mouse) [2]: 9.7 mL min^–1 g^–1

Structure (SMILES): Cc1nn(C)c(C)c1N(C)S(=O)(=O)c1c(Cl)cc(CCCCCn2ccnc2)cc1Cl [compound 35]
- Cli (mouse) [2]: 2.0 mL min^–1 g^–1

Structure (SMILES): Cc1nn(C)c(C)c1N(C)[S+](=O)([O-])c1c(Cl)cc(CCCCCCn2ccnc2)cc1Cl [compound 36]
- EC50 ([1]; MRC-5 EC50): 7.8 µM
- Cli (mouse) [2]: 3.0 mL min^–1 g^–1

Structure (SMILES): Cc1nn(C)c(C)c1N(C)S(=O)(=O)c1ccc(CCCC2CCN(C)CC2)cc1 [compound 38]
- EC50 ([1]; read-out: MRC-5 EC50): 42 µM
- Cli (mouse) [2]: 3.7 mL min^–1 g^–1

Structure (SMILES): Cc1nn(C)c(C)c1N(CC(F)F)S(=O)(=O)c1c(Cl)cc(CCCC2CCN(C)CC2)cc1Cl [compound 41]
- Cli (mouse) [2]: 2.2 mL min^–1 g^–1
- Cli [2]: 2.2 mL/min/g

Structure (SMILES): Cc1nn(C)c(C)c1N(C(F)F)[S+](=O)([O-])c1c(Cl)cc(CCCC2CCNCC2)cc1Cl [compound 43]
- Cli (mouse) [2]: 0.8 mL min^–1 g^–1

Structure (SMILES): Cc1nn(C)c(C)c1N(C(F)F)[S+](=O)([O-])c1c(Cl)cc(CCCN2CCN(C)CC2)cc1Cl [compound 44]
- Cli (mouse) [2]: 4.2 mL min^–1 g^–1

Structure (SMILES): Cc1nn(C)c(C)c1N(C(F)F)[S+](=O)([O-])c1c(Cl)cc(CCCCC2CCNCC2)cc1Cl [compound 45]
- Cli (mouse) [2]: 1.0 mL min^–1 g^–1

Structure (SMILES): Cc1nn(C)c(C)c1N(C(F)F)[S+](=O)([O-])c1c(Cl)cc(CCCOC2CCN(C)CC2)cc1Cl [compound 47]
- Cli (mouse) [2]: 3.7 mL min^–1 g^–1

Structure (SMILES): Cc1nn(C)c(C)c1N(C(F)F)S(=O)(=O)c1c(Cl)cc(CCCCCCN(C)C)cc1Cl [compound 48]
- Cli (mouse) [2]: 3.7 mL min^–1 g^–1

Structure (SMILES): Cc1nn(C)c(C)c1N(C(F)F)S(=O)(=O)c1c(Cl)cc(CCCOC[C@@H]2CCCN2C)cc1Cl [compound 49]
- Cli (mouse) [2]: 8.7 mL min^–1 g^–1

Structure (SMILES): Cc1nn(C)c(C)c1N(C(F)F)S(=O)(=O)c1c(Cl)cc(CCCOC[C@@H]2CCCCN2C)cc1Cl [compound 50]
- Cli (mouse) [2]: 9.8 mL min^–1 g^–1

Structure (SMILES): Cc1nn(C)c(C)c1N(C(F)F)S(=O)(=O)c1c(Cl)cc(CCCOC[C@H]2CCCCN2C)cc1Cl [compound 52]
- Cli (mouse) [2]: 14.2 mL min^–1 g^–1

Structure (SMILES): Cc1nn(C)c(C)c1NS(=O)(=O)c1ccc(-c2ccnc(N3CCNCC3)c2)cc1Cl [compound 54]
- EC50 [3]: 0.25 µM

Structure (SMILES): Cc1cc(-c2ccnc(N3CCNCC3)c2)ccc1S(=O)(=O)Nc1c(C)nn(C)c1C [compound 57]
- EC50 [4]: 0.004 µM
- EC50 [3]: 0.53 µM
